Values quoted from earlier work in patent US20220273822A1, “ANIMAL MODEL OF IDIOPATHIC PULMONARY FIBROSIS, ITS CONSTRUCTION METHOD AND USE” (National Institute of Biological Sciences, Beijing, priority 2019, published 2022).

Settings: IPF

In the case of `Cc1ccc(=O)n(-c2ccccc2)c1` [pirfenidone], the mortality is listed as “tendency of reducing mortality” and the survival time is listed as “failed to show significantly increased survival time”.
In the case of `COC(=O)c1ccc2c(c1)NC(=O)/C2=C(\Nc1ccc(N(C)C(=O)CN2CCN(C)CC2)cc1)c1ccccc1` [nintedanib], the mortality is given as “tendency of reducing mortality” and the survival time is given as “failed to show significantly increased survival time”.
